Source: the supplement of paper PMC10307832

Legend:
Experiment in all cases: relative viability (nuclei count vs DMSO), 5 days (fraction); higher = more cells survive
Trametinib + Phenformin = compound: CC(=O)Nc1cccc(-n2c(=O)n(C3CC3)c(=O)c3c(Nc4ccc(I)cc4F)n(C)c(=O)c(C)c32)c1 [Trametinib] + N=C(N)NC(=N)NCCc1ccccc1 [Phenformin] (partner 250 µM)
How it was run: (§1)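 Relative viability is defined as nuclei in treated wells over nuclei in vehicle wells. Duplicate plates were run and medians reported. Lung cancer cell lines in 1536-well plates were dosed by pin tool one day after seeding, with one drug or with a fixed anchor-drug dose plus five library-drug doses (not always all listed) in √10 steps, and nuclei were counted after 5 days.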

[1] = compound: CN1C=C(C2=CC=CC=C21)/C=C\3/C4=C(C=CC=N4)NC3=O + C[C@@H](Oc1cc(-c2cnn(C3CCNCC3)c2)cnc1N)c1c(Cl)ccc(F)c1Cl [Crizotinib] (partner 1 µM)
How it was run: as §1

[2] = compound: CN1C=C(C2=CC=CC=C21)/C=C\3/C4=C(C=CC=N4)NC3=O + O=C(CCCCCCC(=O)Nc1ccccc1)NO [Vorinostat] (partner 1 µM)
How it was run: as §1

Trametinib + Alpelisib = compound: CC(=O)Nc1cccc(-n2c(=O)n(C3CC3)c(=O)c3c(Nc4ccc(I)cc4F)n(C)c(=O)c(C)c32)c1 [Trametinib] + Cc1nc(NC(=O)N2CCC[C@H]2C(N)=O)sc1-c1ccnc(C(C)(C)C(F)(F)F)c1 [Alpelisib] (partner 2 µM)
How it was run: as §1

Cell Line	relative viability (Trametinib + Phenformin; first compound 0.0025 µM)	relative viability (Trametinib + Phenformin; first compound 0.007906 µM)	relative viability (Trametinib + Phenformin; first compound 0.025 µM)	relative viability (Trametinib + Phenformin; first compound 0.07906 µM)	relative viability (Trametinib + Phenformin; first compound 0.25 µM)	relative viability ([1]; first compound 0.02 µM)	relative viability ([1]; first compound 0.06325 µM)	relative viability ([1]; first compound 0.2 µM)	relative viability ([1]; first compound 0.6325 µM)	relative viability ([1]; first compound 2 µM)	relative viability ([2]; first compound 0.02 µM)	relative viability ([2]; first compound 0.06325 µM)	relative viability ([2]; first compound 0.2 µM)	relative viability ([2]; first compound 0.6325 µM)	relative viability ([2]; first compound 2 µM)	relative viability (Trametinib + Alpelisib; first compound 0.0025 µM)	relative viability (Trametinib + Alpelisib; first compound 0.007906 µM)	relative viability (Trametinib + Alpelisib; first compound 0.025 µM)	relative viability (Trametinib + Alpelisib; first compound 0.07906 µM)	relative viability (Trametinib + Alpelisib; first compound 0.25 µM)
201T	0.397	0.412	0.44	0.437	0.423	1.01	1.04	1.05	1.12	1.01	1.04	0.879	1.03	1.04	1.05	1.02	0.914	0.866	0.893	0.765
A549	0.166	0.153	0.125	0.116	0.058	0.631	0.755	0.724	0.828	0.75						0.6	0.37	0.206	0.158	0.0675
A-427	0.234	0.286	0.22	0.207	0.137	0.924	0.775		1	1.16	0.89	0.845		0.901	0.813	0.91	1.02	0.437	0.607	0.269
ABC-1	0.236	0.259	0.226	0.213	0.221	1.03	0.988	1.03	1.04	1.43	1.29	0.899	0.926	1.05	0.834	0.729	0.703	0.564	0.583	0.554
BEN	0.264	0.258	0.247	0.278	0.275	0.896	0.807	0.761	0.779	0.956	0.547	0.541	0.571	0.636	0.574	0.951	0.939		0.763	0.888
CAL-12T	0.457	0.376	0.295	0.267	0.229	0.552	0.654	0.549	0.81	0.743	0.652	0.675	0.703	0.873	0.679	1.14	0.79	0.452	0.45	0.34
COR-L23	0.479	0.437	0.384	0.388	0.269	0.631	0.576	0.752	0.622	0.671	0.452	0.433	0.42	0.479	0.396	0.766	0.723	0.668	0.436	0.241
COR-L 105	0.421	0.354	0.293	0.277	0.213	0.655	0.515	0.637	0.849	0.885	0.845	0.682	0.774	0.793	0.768	0.808	1.03	0.352	0.419	0.389
Calu-6						0.675	0.783	0.815	0.772	0.816						0.974	0.414	0.231	0.156	0.16
ChaGo-K-1	0.413	0.444	0.492	0.414	0.317	1.07	1.11		1.16	1.21	0.71	0.772	0.627	0.759	0.769					
EBC-1						0.233	0.182	0.192	0.183	0.207						0.901	0.65	0.313	0.21	0.206
EKVX	0.234	0.209	0.198	0.192	0.24	0.835	0.927	0.913	0.792	0.876	0.537	0.627	0.641	0.631	0.638	0.832	0.638	0.629	0.444	0.343
EMC-BAC-2	0.582	0.565	0.443	0.475	0.31	0.644	0.714	0.668	0.757	0.832	0.849	0.441	0.39	0.261	0.214	0.645	0.641	0.562	0.568	0.497
EPLC-272H	0.273	0.194	0.171	0.15	0.128	0.924	0.96		0.909	1.06	0.486	0.379	0.465		0.404	0.721	0.539	0.438	0.438	0.346
H3255	0.346	0.368	0.342	0.297	0.263	0.91	0.935	0.874	0.888	0.889	1.03		0.876	0.749	0.774	0.684	0.566	0.503	0.41	0.317
